Experimental data reported in patent publication US20060172920A1, “Oxidised lipids as reversal agents for boronic acid drugs” (priority 2004, published 2006).
pIC50: −log10 of the molar value. Several values for one entry are separate records, joined by “and”; a condition that tells them apart may be missing. Identical values can stand only once.

Assays:
thrombin [1] = molecular target: T1, thrombin (Homo sapiens, UniProt P00734); test: Thrombin assay, reversal of TRI 50c inhibition (Example 10, Methods A-C); format: biochemical; conditions: final concentration; TRI 50c 1 μM; Method A
Procedure: 50 μl thrombin (33.3 ng/ml in assay buffer) and 20 μl vehicle or compound solution were added to 110 μl assay buffer (100 mM Na orthophosphate (80% Na2HPO4 and 20% NaH2PO4), 200 mM NaCl, 0.5% PEG 6000, 0.02% Na azide, pH 7.5) and incubated for 5 minutes at 37° C. […] Results are expressed as percentage change in thrombin activity. […] After the incubation period 100 μl of activated HDL (Method B) was added and further incubated for 30 minutes at 37° C.

human thrombin [2] = test: Quenching of TRI-50b neutralising activity by N-acetyl cysteine (Method B); format: biochemical
Procedure: Method B Method as A except that the measurement was made at a single time point. The incubation period was 20 minutes with plasma samples and 1 minute with the purified lipoproteins. Results are given as the overall percentage activity relative to a control without inhibitor. If lipid peroxides are involved in the inactivation then, the addition of n-acetyl-cysteine (NAC), a powerful anti-oxidant should reduce the neutralising activity. (NAC has been used historically to mop up reactive oxygen species). […] Plasma (1 in 10 dilution in buffer A) was incubated with 1.0 mM cupric sulphate for 4 hours. Increasing concentrations of n-acetyl cysteine were then added and also to BLp (1 in 10 dilution in buffer A). The neutralisation of TRI-50b was measured by Method B (Materials and Methods). Plasma, ▪-▪, BLp ▴-▴. A reduction in neutralising activity, to approximately base-line levels was observed when increasing concentrations of NAC were added to plasma or the bovine lipoprotein fraction (FIG. 14).

thrombin clotting time = test: Example 11: TRI 50b and lipoprotein antidote in rat, thrombin clotting time; format: in vivo
Procedure: The efficacy of a new specific antidote towards the dynamic activity of TRI 50b was evaluated in a rat study (n=15) (Male and Female rats circa 250-300 g).
Male and female rats were anaesthetised and arterial blood sampling lines placed.
The antidote was prepared from a bovine lipoprotein following oxidation, ultrafiltration and Concentration.
The study was divided into three groups as follows: • TRI 50b alone at a dose of 2.0 mg/kg intravenously (0.8 ml/kg: Prepared in 25% ethanol/saline) • Antidote alone (5.0 ml/kg) • TRI 50b followed by administration of the antidote.
Blood samples were taken from an arterial line into 3.8% tri-sodium citrate and plasma prepared by centrifugation.
Dynamic activity of TRI 50b was assessed in plasma samples by measurement of the thrombin clotting time.
200 ml of Lipocell (Lipoprotein fraction, Intergen catalogue number 4505-01, Lot number WT18002) was incubated at 37° C. for 37 hours. The Lipocell was then concentrated by centrifugation. The sample contained in an Amicon Centriprep YM-3 centrifugal concentrator was spun at 3800 rpm in an IEC Centra 3C centrifuge for 30 minutes at RT. The concentrated samples were pooled and centrifuged twice more to a final volume of around 50 mls. The sample was stored at 4° C.

thrombin [3] = molecular target: T1, thrombin; test: Ki of hydrogen peroxide-treated TRI-50b against thrombin (Dixon plots); format: biochemical; conditions: after hydrogen peroxide (3.0%) 2 hours at RT
Procedure: The loss of activity of boropeptides when contacted with peroxide compounds was apparently due to the removal of the boronic acid moiety (as was observed upon treatment of TRI-50b with hydrogen peroxide). The boron provides at least four orders of binding energy to the peptide sequence because of the formation of a transition state-like adduct with the active site serine. […] 1 volume TRI-50b (15 mg/ml in DMSO) was added slowly to 10 volumes of hydrogen peroxide (3.0%) for 2 hours at RT. The Ki for inhibition of thrombin activity was carried out using Dixon plots. The initial rate of cleavage of S2302 (a chromogenic substrate for thrombin) by thrombin (28 nM) was determined at the different concentrations of substrate in the presence of varying concentrations of the oxidised inhibitor. This loss of binding energy was observed as a 20,000 fold increase in the Ki against thrombin (FIG. 15).

rat plasma = test: Ecarin clotting time in rat plasma (Example 10, Method D); format: biochemical; conditions: 10 μM; fresh rat plasma
Procedure: (§1) Ecarin was obtained from HTI (USA) whilst the normal human plasma was purchased from Precision Biologics via Alpha Laboratories (UK). Rat plasma was purchased from Harlan laboratories, UK.
(§2) TRI 50c was diluted in an assay buffer (100 mM sodium orthophoshate, 200 mM NaCl, 0.5% PEG 6000 and 0.02% sodium azide, pH 7.5) and incubated with normal human pooled or rat plasma (80% final) for 5 minutes at 37° C. Ecarin (100 μg/ml final) was added to the incubating solution. The clotting times were determined using a plate reader (Versamax, Molecular Devices Corporation) at 405 nm for up to 10 minutes at 37° C.

normal human plasma = test: Ecarin clotting time in human plasma (Example 10, Method D); format: biochemical; conditions: 1-10 μM
Procedure: as §1, §2

human thrombin [4] = test: Total neutralising capacity towards peptide boronates (Method C); format: biochemical; conditions: for maximum number of boronate molecules destroyed by BLp: BLp in the absence of Cu2+
Procedure: Method C. 20 μl of TRI-50b dissolved in DMSO was added to 313 μl of bovine lipoprotein (diluted 1 in 10 in Buffer A, see method A above) to achieve a range of final concentrations of 164, 333, 490, 660, 820, 990, 1150, 1320 and 1480 μM, respectively. Samples were removed at timed intervals and diluted 1 in 20 with buffer A. The concentration of TRI-50b in 25 μl of this mixture was determined as described in Method A. Residual TRI-50b was determined from a standards curve. The change in concentration of TRI-50b was calculated by subtracting the residual concentration from the starting concentration.
BLp was incubated at 37° C. in the presence or absence of 1 mM cupric sulphate, Samples were taken at timed intervals and added to varying concentrations of TRI-50b up to 1.5 mM. The residual TRI-50 b was measured by Method C (Materials and Methods). —Cu^2+ […]-[…]; +Cu^2+ ▴-▴. In FIG. 10 are shown the results of an experiment in which the total mass of neutralising activity of bovine lipoprotein was determined. Increasing concentrations of TRI-50b up to 1.5 mM were added to a ten-fold dilution of the BLp fraction (OD280 nm=4.0). A rapid neutralisation of TRI-50b was observed reaching a maximum beyond which the neutralising capacity was totally exhausted. In the absence of Cu^2+, the maximum mass of TRI-50b that was neutralised was equivalent to 0.8 mM. The concentration of BLp in the mixture was 1.9 g/l or 0.0038 mM. Thus around 200 moles of TRI-50b were neutralised per mole of lipoprotein. In the presence of Cu^2+, the maximum mass of TRI-50b that was neutralised was higher and equivalent to 320 moles/mole.
A similar experiment was carried out with dilutions of plasma (FIG. 11). […] Plasma at varying dilutions was incubated at 37° C. in the presence of 1 mM cupric sulphate. Samples were taken at timed intervals and added to varying concentrations of TRI-50b up to 1.5 mM. The residual TRI-50 b was measured by Method C (Materials and Methods). 1 in 3, […]-[…]; 1 in 6, ▴-▴; 1 in 12, ▾-▾; 1 in 3 without Cu^2+, ▪-▪. […]
The low-density lipoprotein particle contains a single molecule of a 500 kDa protein and 1500 molecules of esterified cholesterol. […] Samples were taken at timed intervals and the residual TRI-50b concentration was determined by Method C (Materials and Methods).
In FIG. 13 are shown the observations made upon the neutralisation of a number of other peptide boronates by BLp added in the absence of Cu^2+, namely TRI-30, Z-D-Dpa-Pro-BoroMbg-Opin, TRI-26, Z-D-βNal-Pro-BoroIrg-Opin; TRI-142, Moc-D,L-Dpa-Pro-BoroMpg-Opinac. […] The residual concentration of boronate was determined by Method C (Materials and Methods).

[5] = PBS pH 7.2; cited from earlier work
[6] = stored at −80° C.; cited from earlier work

Q: With O=S(=O)([O-])[O-].[Cu+2] [CuSO4, copper sulphate] as the compound, how does the “concentration that began to reduce the inhibitory activity of TRI 50c” value (thrombin [1]) read?
A: greater than 50 μM

Q: With CC(=O)NC(CS)C(=O)O (stereo not shown) [NAC, n-acetyl-cysteine] as the compound, how does the pIC50 (human thrombin [2]; BLp (1 in 10 dilution)) read?
A: ~2.70

Q: And the pIC50 (human thrombin [2]; oxidised plasma (1 in 10, 1.0 mM cupric sulphate 4 hours))?
A: ~4.00

Q: Which “elevation of thrombin clotting time over base line” value (thrombin clotting time; 2.0 mg/kg intravenously, two minutes post dose) does the source give for COCCC[C@H](NC(=O)[C@@H]1CCCN1C(=O)[C@@H](Cc1ccccc1)NC(=O)OCc1ccccc1)B1OC(C)(C)C(C)(C)O1 [TRI 50b, Cbz-(R)-Phe-Pro-BoroMpg-OPinacol] here?
A: 5.6 times base line

Q: What about the “thrombin clotting time (TT)” value (thrombin clotting time; 2.0 mg/kg iv, 30 minutes post dose) of the same compound?
A: 36 s

Q: What about the “time for thrombin clotting time to return to base line” value (thrombin clotting time; 2.0 mg/kg iv, post dose) of the same compound?
A: ≤ 60 min

Q: What about the thrombin clotting time (thrombin clotting time; 2.0 mg/kg iv, two minutes post dose) of the same compound?
A: 128 s and 138 s

Q: And the “increase in the Ki against thrombin” value (thrombin [3])?
A: 20,000 fold

Q: Which ECT (rat plasma) does the source give for COCCC[C@H](NC(=O)[C@@H]1CCCN1C(=O)[C@@H](Cc1ccccc1)NC(=O)OCc1ccccc1)B(O)O [TRI 50c, Cbz-(R)-Phe-(S)-Pro-(R)-Mpg-B(OH)2] here?
A: approximately 215 seconds

Q: What about the “prolongation of ECT” value (normal human plasma) of the same compound?
A: concentration dependent prolongation

Q: For “Moc-D,L-Dpa-Pro-BoroMpg-Opinac [TRI-142]”, which “maximum number of boronate molecules destroyed by BLp” value (“maximum number” below) (human thrombin [4]) is on record?
A: around 65 moles/mole

Q: With Z-D-Dpa-Pro-BoroMbg-Opin [TRI-30] as the compound, how does the “maximum number” value (human thrombin [4]) read?
A: around 80 moles/mole

Q: With Z-D-βNal-Pro-BoroIrg-Opin [TRI-26] as the compound, how does the “maximum number” value (human thrombin [4]) read?
A: around 65 moles/mole

Q: What does the source list for cholesteryl linoleate hydroperoxide?
A: solubility in aqueous buffers [5]: < 20 µg/mL; storage stability [6]: stable for at least six months; equivalence of TRI-50b neutralisation (human thrombin [4]; 44 μM hydroperoxide mixed with TRI-50b): approximately 1 mole/mole
